According to US20230271941A1, “COMPOUNDS AND COMPOSITIONS FOR TREATING CONDITIONS ASSOCIATED WITH STING ACTIVITY” (IFM Due, Inc., priority 2020, published 2023):

Each molecule was assayed against T1, hSTING (Homo sapiens, UniProt Q86WV6, G230A/H232R/R293Q/R71H) (assay: STING reporter assay: THP1-Dual KO-IFNAR2 cells stimulated with 2′3′cGAMP, luciferase reporter activity). Details: 15 μM 2′3′cGAMP transfected with Lipofectamine 2000, 24 h, luciferase reporter (QUANTI-Luc).
T1 construct: host or cells: THP1-Dual KO-IFNAR2 cells
Assay type: cell-based
Procedure: STING pathway activation by the compounds described herein was measured using THP1-Dual™ cells (KO-IFNAR2).
THP1-Dual™ KO-IFNAR2 Cells (obtained from invivogen) were maintained in RPMI, 10% FCS, 5 ml P/S, 2 mM L-glut, 10 mM Hepes, and 1 mM sodium pyruvate. Compounds were spotted in empty 384 well tissue culture plates (Greiner 781182) by Echo for a final concentration of 0.0017-100 μM. Cells were plated into the TC plates at 40 μL per well, 2×10E6 cells/mL. For activation with STING ligand, 2′3′cGAMP (MW 718.38, obtained from Invivogen), was prepared in Optimem media.
The following solutions were prepared for each 1×384 plate: • Solution A: 2 mL Optimem with one of the following stimuli: • 60 μL of 10 mM 2′3′cGAMP→150 μM stock • Solution B: 2 mL Optimem with 60 μL Lipofectamine 2000→Incubate 5 min at RT
2 mL of solution A and 2 ml Solution B was mixed and incubated for 20 min at room temperature (RT). 20 μL of transfection solution (A+B) was added on top of the plated cells, with a final 2′3′cGAMP concentration of 15 μM. The plates were then centrifuged immediately at 340 g for 1 minute, after which they were incubated at 37° C., 5% CO2, >98% humidity for 24 h. Luciferase reporter activity was then measured. EC50 values were calculated by using standard methods known in the art.
Luciferase reporter assay: 10 μL of supernatant from the assay was transferred to white 384-plate with flat bottom and squared wells. One pouch of QUANTI-Luc™ Plus was dissolved in 25 mL of water. 100 μL of QLC Stabilizer per 25 mL of QUANTI-Luc™Plus solution was added. 50 μL of QUANTI-Luc™ Plus/QLC solution per well was then added. Luminescence was measured on a Platereader (e.g., Spectramax I3X (Molecular Devices GF3637001)).
Luciferase reporter activity was then measured. EC50 values were calculated by using standard methods known in the art.

T1 sequence (Q86WV6 whole entry R71H/G230A/H232R/R293Q): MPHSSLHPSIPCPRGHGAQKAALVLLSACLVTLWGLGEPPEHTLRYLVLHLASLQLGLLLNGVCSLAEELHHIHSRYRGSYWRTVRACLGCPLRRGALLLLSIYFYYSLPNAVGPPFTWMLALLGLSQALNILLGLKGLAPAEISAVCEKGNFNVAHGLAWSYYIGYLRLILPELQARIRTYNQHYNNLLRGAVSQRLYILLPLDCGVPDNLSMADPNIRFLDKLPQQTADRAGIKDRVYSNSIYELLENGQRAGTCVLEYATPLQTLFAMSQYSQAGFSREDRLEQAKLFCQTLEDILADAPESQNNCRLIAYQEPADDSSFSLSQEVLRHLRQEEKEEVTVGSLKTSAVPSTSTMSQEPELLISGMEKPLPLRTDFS

SMILES | EC50
O=C(Nc1c[nH]c2cc(F)c(Cl)cc12)c1cn(Cc2ccc(C(F)(F)F)cc2)nn1 [Compound 168, N-(5-chloro-6-fluoro-1H-indol-3-yl)-1-(4-(trifluoromethyl)benzyl)-1H-1,2,3-triazole-4-carboxamide] | 200 to 1000 nM
CC(C)(C)OC(=O)N1CCC(n2cc(C(=O)Nc3c[nH]c4cc(F)c(F)cc34)nn2)CC1 [Compound 169, tert-butyl 4-(4-((5,6-difluoro-1H-indol-3-yl)carbamoyl)-1H-1,2,3-triazol-1-yl)piperidine-1-carboxylate] | 1000 to 5000 nM
O=C(Nc1c[nH]c2cc(F)c(F)cc12)c1cc(-c2ccc(F)cc2F)on1 [Compound 170, N-(5,6-difluoro-1H-indol-3-yl)-5-(2,4-difluorophenyl)isoxazole-3-carboxamide] | 200 to 1000 nM
O=C(Nc1c[nH]c2cc(F)c(F)cc12)c1cc(-c2ccc(Cl)cc2)no1 [Compound 171, 3-(4-chlorophenyl)-N-(5,6-difluoro-1H-indol-3-yl)isoxazole-5-carboxamide] | 200 to 1000 nM
Cn1nc(C(=O)Nc2c[nH]c3cc(F)c(F)cc23)cc1-c1ccccc1 [Compound 172, N-(5,6-difluoro-1H-indol-3-yl)-1-methyl-5-phenyl-1H-pyrazole-3-carboxamide] | 200 to 1000 nM
O=C(Nc1c[nH]c2cc(F)c(F)cc12)c1cc(-c2cc(F)cc(F)c2)[nH]n1 [Compound 173, N-(5,6-difluoro-1H-indol-3-yl)-5-(3,5-difluorophenyl)-1H-pyrazole-3-carboxamide] | 200 to 1000 nM
O=C(Nc1c[nH]c2cc(F)c(F)cc12)c1cc(-c2cccc(Cl)c2)[nH]n1 [Compound 174, 5-(3-chlorophenyl)-N-(5,6-difluoro-1H-indol-3-yl)-1H-pyrazole-3-carboxamide] | 200 to 1000 nM
O=C(Nc1c[nH]c2cc(F)c(F)cc12)c1cc(-c2ccccc2)[nH]n1 [Compound 175, N-(5,6-difluoro-1H-indol-3-yl)-5-phenyl-1H-pyrazole-3-carboxamide] | 200 to 1000 nM
O=C(Nc1c[nH]c2cc(F)c(F)cc12)c1cc(-c2ccncc2)[nH]n1 [Compound 176, N-(5,6-difluoro-1H-indol-3-yl)-5-(pyridin-4-yl)-1H-pyrazole-3-carboxamide] | 5000 to 100000 nM
O=C(Nc1c[nH]c2cc(F)c(F)cc12)c1csc(-c2ccc(OC(F)(F)F)cc2)n1 [Compound 177, N-(5,6-difluoro-1H-indol-3-yl)-2-(4-(trifluoromethoxy)phenyl)thiazole-4-carboxamide] | 1000 to 5000 nM
CC(C)(O)CCc1ncc(-n2cc(C(=O)Nc3c[nH]c4cc(F)c(F)cc34)nn2)cc1F [Compound 179, N-(5,6-difluoro-1H-indol-3-yl)-1-[5-fluoro-6-(3-hydroxy-3-methylbutyl)pyridin-3-yl]-1H-1,2,3-triazole-4-carboxamide] | 5000 to 100000 nM
